Assay [1] relates to PDH-E1alpha (pSer300) in HEK293T cells. Nature of the assay: Cellular immunofluorescence assay (Anti-PDH-E1alpha (pSer300)) in HEK293T cells. The format is cell-based. The following applies: Homo sapiens, HEK-293T, 5 hours incubation, read-out: IC50 (cell data). The protocol:
Cellular Assay for Determination of Compound Activities
Compound activities were determined in a cellular immunofluorescence assay.
Human HEK293T cells were seeded into black 384-well plates with clear bottom and grown overnight.
Next day, test compounds were added to the wells and the plates incubated for 5 hours. Following this, cells were fixed with formaldehyde, permeabilised and blocked. The primary antibody, Anti-PDH-E1alpha (pSer300), AP1064 (Merck Millipore) was added and incubated overnight in the plate wells. Next, cells were washed and the secondary antibody, Alexa Fluor 488, goat anti-rabbit ab (A-11008, Invitrogen) was added together with Hoechst 33258 (H3569, Invitrogen) and incubated for 1 hour in the plate wells. Finally, cells were washed and the plates were measured on the laser scanning cytometer acumen hci (TTpLabtech).
The raw data were normalized against a pharmacological inhibitor control and dose response curves were generated by plotting the percent effect values using the software package Genedata screener (Genedata).

The target of assay [2] is human PDHK2 (12-407) (Homo sapiens (Human), UniProt Q15119). The assay can be described thus: Isothermal titration calorimetry (ITC). The conditions noted are these: 30° C., pH 7.5; read-out: Binding (ITC) KD. The protocol: Isothermal Titration Calorimetry
ITC measurements were performed with a VP-ITC micro calorimeter (Microcal, LLC/GE Healthcare Bio-Sciences AB, Uppsala, Sweden). In general titrations were performed by titrating the protein (50 μM) to the test compound (5 μM) in 12 μl injections. All binding experiments were carried out at 30° C. In general the test compounds were diluted form DMSO stock solutions into the measurement buffer with a maximum final concentration of 1% DMSO. The measurement buffer was 20 mM HEPES, 135 mM KCl, 1 mM TCEP, 2 mM MgCl2, 15 mM NaH2PO4, pH 7.5. The human PDHK2 (12-407) was produced in E. coli as his-tagged protein and purified by affinity chromatography. The tag was removed by side specific proteolysis. Before titration the protein buffer was changed to the measurement buffer containing the same DMSO concentration as the test compound dilution. ITC data analysis was performed using Origin 7 calorimetry software from the same supplier. For most measurements a binding model of one binding site was assumed. According to the applied mathematical model it is possible to calculate the binding constant (KA), the observed binding enthalpy (ΔH^obs) as well as the stoichiometry (N) of the formed complex. Preceding analysis the raw data was corrected for the heats of dilution by extrapolating from the saturation value from the end of titration. In order to allow for direct comparison between the respective experimental series and protein preparations the protein concentration was corrected by referencing titrations to a well behaved standard inhibitor. The apparent stoichiometry values defined the fraction of binding competent protein and compensated for relative errors in protein concentration measurements. This corrected protein concentration was used to set up ITC experiment series with test compounds. Any deviations from ideal 1:1 stoichiometry observed here were attributed to errors in compound concentration. This nominal compound concentration was corrected as well to achieve 1:1 stoichiometry in the fit.

Assay [3] has as its target PDHK2 (Homo sapiens (Human), UniProt Q15119). Nature of the assay: Biochemical activity testing of PDHK2: PDC inactivation assay. The following applies: human rec PDHK2, 5 μM ATP, read-out: IC50 PDHK2 (enzyme assay). An excerpt:
Biochemical Activity Testing of PDHK2: PDC Inactivation Assay
The biochemical activity assay for PDHK2 is based on the inactivation of PDC through phosphorylation by PDHK2. The assay is run in two steps: the enzymatic PDHK2 reaction in which isolated PDC is phosphorylated by PDHK2 with ATP as co-substrate and the PDC activity assay in which pyruvate and NAD are converted to acetyl-CoA and NADH. The PDC activity correlates to the increase in NADH and thereby is detectable directly via the increasing fluorescence signal (Exc 340 nm, Em 450 nm). Inhibition of PDHK2 results in a lower phosphorylation status and thereby a less decrease in activity of PDC and a stronger increase in NADH fluorescence signal.
The PDC inactivation assay is performed in Greiner 384-well microtiter plates and is used for high throughput screen. 4 μl of PDHK2 (human, rec, Carna Bioscience, 10 ng/μl-137 nM final concentration) and PDC (isolated from porcine heart, Sigma-Aldrich, 20 mU/ml final concentration) are incubated in the absence or presence of the test compound (10 dilution concentrations) for 30 min at room temperature in kinase buffer (15 mM potassium phosphate buffer, pH 7.0, 60 mM KCl, 1.5 mM DTT, 2.5 mM MgCl2, 0.0125% (w/v) BSA, 0.125% Pluronic F-68). The kinase reaction is started by the addition of 4 μl ATP substrate solution (fc 5 μM in kinase buffer). After 30 min incubation at 37° C. 40 μl of PDC reaction solution (100 mM Tris/HCl, pH 7.8, 0.5 mM EDTA, 1 mM MgCl2, 50 mM NaF, 0.25 mM Coenzyme A, 5 mM pyruvate, 1 mM NAD, 5 mM DTT, 1 mM thiamine pyrophosphate) is added. The first fluorescence measurement is performed on a Perkin Elmer Envision (Exc 340 nm, Em 450 nm). The reaction is incubated for 45 min at room temperature. Afterwards a second fluorescence measurement is performed and the PDC activity is calculated by the difference between both measurements. As full value for the PDHK2 assay the inhibitor-free PDHK2 reaction is used. The pharmacological zero value used is DCA (Sigma-Aldrich) in a final concentration of 3 mM. The inhibitory values (IC50) were determined using either the program Symyx Assay Explorer® or Condosseo® from GeneData.

Take `Cc1ccc(N(C)C(=O)C2CCN(C(=O)[C@@](C)(O)C(F)(F)F)CC2)cc1` [Compound A1, 1-((R)-3,3,3-Trifluoro-2-hydroxy-2-methyl-propionyl)-piperidine-4-carboxylic Acid Methyl-p-Tolyl-Amide]: the results for the IC50 in assay [1] and in assay [3] were 5300 nM and 1100 nM, respectively. Also, the Kd in assay [2] is 130 nM.

Consider `Cc1ccc(N(C)C(=O)C2CCN(C(=O)[C@@](C)(O)C(F)(F)F)CC2)c(F)c1` [Compound A2, 1-((R)-3,3,3-Trifluoro-2-hydroxy-2-methyl-propionyl)-piperidine-4-carboxylic acid (2-fluoro-4-methyl-phenyl)-methyl-amide], for which the IC50 was found to be 2600 nM in assay [1] and 200 nM in assay [3]. For the same molecule, the Kd in assay [2] came out at 90 nM.

As for `CN(C(=O)C1CCN(C(=O)[C@@](C)(O)C(F)(F)F)CC1)c1ccc(C(F)(F)F)cc1Cl` [Compound A3, 1-((R)-3,3,3-Trifluoro-2-hydroxy-2-methyl-propionyl)-piperidine-4-carboxylic acid (2-chloro-4-trifluoromethyl-phenyl)-methyl-amide], the concentration for half-maximal inhibition (IC50) in assay [1] worked out at 2100 nM; in assay [3], 410 nM. Moreover, the Kd in assay [2] is 38 nM.

For `CN(C(=O)C1CCN(C(=O)[C@@](C)(O)C(F)(F)F)CC1)c1ccc(Cl)cc1` [Compound A5, 1-((R)-3,3,3-Trifluoro-2-hydroxy-2-methyl-propionyl)-piperidine-4-carboxylic acid (4-chloro-phenyl)-methyl-amide], the IC50 in assay [1] was 2800 nM; in assay [3], 590 nM. For the same molecule, in assay [2], the Kd is 190 nM.

With `Cc1ccc(N(C)C(=O)C2CCN(C(=O)[C@@](C)(O)C(F)(F)F)CC2C)cc1` (stereo partly drawn) [Compound A6, N,3-Dimethyl-N-(4-methylphenyl)-1-[(2R)-3,3,3-trifluoro-2-hydroxy-2-methylpropanoyl]piperidine-4-carboxamide], the results for the IC50 in assay [1] and in assay [3] were 200 nM and 240 nM, respectively.

With `Cc1ccc(N(C)C(=O)[C@H]2CCN(C(=O)[C@@](C)(O)C(F)(F)F)C[C@H]2C)cc1` [Compound A7, (3S,4S)—N,3-Dimethyl-N-(4-methylphenyl)-1-[(2R)-3,3,3-trifluoro-2-hydroxy-2-methylpropanoyl]piperidine-4-carboxamide], the figures for the IC50 in assay [1] and in assay [3] were 19 nM and 160 nM, respectively. Also, in assay [2], the Kd was 31 nM.

Consider `CC1CN(C(=O)[C@@](C)(O)C(F)(F)F)CCC1C(=O)N(C)c1ccc(Cl)cc1` (stereo partly drawn) [Compound A9, N-(4-chlorophenyl)-N,3-dimethyl-1-[(2R)-3,3,3-trifluoro-2-hydroxy-2-methylpropanoyl]piperidine-4-carboxamide], for which the half-maximal inhibitory concentration (IC50) in assay [1] turned out to be 230 nM; in assay [3], 270 nM. Further, in assay [2], the Kd was 100 nM.

As to `C[C@@H]1CN(C(=O)[C@@](C)(O)C(F)(F)F)CC[C@@H]1C(=O)N(C)c1ccc(Cl)cc1` [Compound A10, (3S,4S)—N-(4-chlorophenyl)-N,3-dimethyl-1-[(2R)-3,3,3-trifluoro-2-hydroxy-2-methylpropanoyl]piperidine-4-carboxamide], the IC50 turned out to be 170 nM in assay [1] and 110 nM in assay [3]. The Kd in assay [2] is 26 nM.

For `Cc1ccc(N(C)C(=O)C2CCN(C(=O)[C@@](C)(O)C(F)(F)F)CC2C)c(F)c1` (stereo partly drawn) [Compound A12, N-(2-fluoro-4-methylphenyl)-N,3-dimethyl-1-[(2R)-3,3,3-trifluoro-2-hydroxy-2-methylpropanoyl]piperidine-4-carboxamide], the results for the IC50 in assay [1] and in assay [3] were 190 nM and 200 nM, respectively.

With `Cc1ccc(N(C)C(=O)[C@H]2CCN(C(=O)[C@@](C)(O)C(F)(F)F)C[C@H]2C)c(F)c1` [Compound A13, (3S,4S)—N-(2-fluoro-4-methylphenyl)-N,3-dimethyl-1-[(2R)-3,3,3-trifluoro-2-hydroxy-2-methylpropanoyl]piperidine-4-carboxamide], the IC50 was 70 nM in assay [1] and 120 nM in assay [3]. In addition, the Kd in assay [2] turned out to be 14 nM.

Consider `CN(C(=O)c1ccc(Cl)cc1)C1CCN(C(=O)[C@@](C)(O)C(F)(F)F)CC1` [Compound A16, 4-Chloro-N-methyl-N-{1-[(2R)-3,3,3-trifluoro-2-hydroxy-2-methylpropanoyl]piperidin-4-yl}benzamide], for which the 50% inhibitory concentration (IC50) in assay [1] stood at 1500 nM; in assay [3], 390 nM. Also, the Kd in assay [2] is 154 nM.

Turning to `Cc1ccc(C(=O)N(C)C2CCN(C(=O)[C@@](C)(O)C(F)(F)F)CC2)cc1` [Compound A17, N,4-Dimethyl-N-{1-[(2R)-3,3,3-trifluoro-2-hydroxy-2-methylpropanoyl]piperidin-4-yl}benzamide], the IC50 in assay [1] amounted to 1000 nM; in assay [3], 250 nM. For the same molecule, the Kd in assay [2] came to 110 nM.

For the molecule `Cc1ccc(C(=O)N(C)C2CCN(C(=O)[C@@](C)(O)C(F)(F)F)CC2)c(F)c1` [Compound A18, 2-Fluoro-4,N-dimethyl-N-{1-[(R)-3,3,3-trifluoro-2-hydroxy-2-methyl-propionyl]-piperidin-4-yl}-benzamide], the IC50 in assay [1] was found to be 700 nM; in assay [3] it was 260 nM. Besides, in assay [2], the Kd amounted to 69 nM.

As to `CN(C(=O)c1ccc(C(F)(F)F)cc1Cl)C1CCN(C(=O)[C@@](C)(O)C(F)(F)F)CC1` [Compound A19, 2-Chloro-N-methyl-N-{1-[(2R)-3,3,3-trifluoro-2-hydroxy-2-methylpropanoyl]piperidin-4-yl}-4-(trifluoromethyl)benzamide], the IC50 is 520 nM in assay [1] and 550 nM in assay [3]. Also, the Kd in assay [2] came out at 53 nM.

As for `C[C@@H]1CN(C(=O)[C@@](C)(O)C(F)(F)F)CC[C@@H]1N(C)C(=O)c1ccc(Cl)cc1` [Compound A21, 4-Chloro-N-methyl-N-[(3R,4S)-3-methyl-1-[(2R)-3,3,3-trifluoro-2-hydroxy-2-methylpropanoyl]piperidin-4-yl]benzamide], the IC50 in assay [1] amounted to 160 nM; in assay [3] it was 260 nM. In assay [2], the Kd worked out at 57 nM.

Regarding `Cc1ccc(C(=O)N(C)[C@H]2CCN(C(=O)[C@@](C)(O)C(F)(F)F)C[C@H]2C)cc1` [Compound A24, N,4-Dimethyl-N-[(3R,4S)-3-methyl-1-[(2R)-3,3,3-trifluoro-2-hydroxy-2-methylpropanoyl]piperidin-4-yl]benzamide], the values for the IC50 in assay [1] and in assay [3] were 290 nM and 130 nM, respectively. Besides, in assay [2], the Kd is 16 nM.
